The source of these data is article PMC11317440, “Soloxolone para-methylanilide effectively suppresses aggressive phenotype of glioblastoma cells including TGF-β1-induced glial-mesenchymal transition in vitro and inhibits growth of U87 glioblastoma xenografts in mice” (Frontiers in Pharmacology, 2024).

Data set [1] deals with U87 glioblastoma cells. Kind of data set: MTT cell viability assay, U87 cells, 48 h. It is filed as cell-based, human. Particulars: for relative cytotoxicity: 48 h of incubation, U87; for MNTC: Homo sapiens, U-87 MG, 48 h, read-out: non-toxic concentration that reduced U87 cell viability by less than 10%. On the procedure: Cells were seeded in quadruplicate in 96-well plates at 10,000 cells/well and allowed to adhere overnight. The medium was then replaced with serum-free DMEM containing increasing concentrations of soloxolone amides for 48 h. After incubation, 3-(4,5-dimethylthiazol-2-yl)-2,5-diphenyltetrazolium bromide (MTT dye) was added at a final concentration of 0.5 mg/mL and left for 2 h. The resulting formazan crystals were dissolved in DMSO and the optical density was measured at 570 nm using a Multiscan RC plate reader (Thermo LabSystems, Helsinki, Finland).
(Formazan colour is commonly taken as a measure of viable cells.)

For data set [2], the system named is U87 primary tumorspheres. Further details: method as in Markov et al., 2023. Particulars: ref Markov et al., 2023; cited from earlier work.
In data set [3] the test system is TGF-β1-induced U87 cells. Kind of data set: Cell morphology (cell size) of TGF-β1-induced U87 cells. Particulars: TGF-β1 50 ng/mL, non-toxic concentrations, 48 h. It is filed as cell-based, human. On the procedure: After seeding at a concentration of 5,000 cells/well in triplicate in 96-well plates and incubating overnight, U87 and U118 cells were exposed to TGF-β1 (50 ng/mL) and non-toxic concentrations of soloxolone amides for 48 h. An EVOS XL Core microscope with an integrated CMOS camera (Thermo Fisher Scientific, USA) was then used to examine cell morphology at ×20 magnification. Aspect ratio (AR) and area were quantified for at least 150 cells in each experimental group using ImageJ software (NIH, USA).

The subject of data set [4] is U87 glioblastoma xenograft. Further details: method as in Markov et al., 2022a. Particulars: 9 administered at a similar dose and schedule; ref Markov et al., 2022a; cited from earlier work.
Data set [5] can be described thus: Toxicity assessment in U87 glioblastoma-bearing mice. It counts as in vivo, athymic nude mice. Particulars: 7 20 mg/kg i.p. or TMZ 10 mg/kg i.p. injected alone. On the procedure: During the experiment, the general status and body weight of the animals were monitored. At the end of the experiment, livers and kidneys were collected and organ indices were calculated as (organ weight/body weight) × 100%, followed by the normalization of organ indices of experimental mice to organ indices of control mice.

Data set [6] relates to U87 glioblastoma xenograft. Kind of data set: U87 glioblastoma xenograft model. It is filed as in vivo, athymic nude mice. Particulars: end of the experiment (day 19); 7 20 mg/kg i.p., TMZ 10 mg/kg i.p. On the procedure:
A xenograft model of tumor progression was induced by subcutaneous (s.c.) implantation of U87 glioblastoma cells (2×10^7 cells/mL) suspended in 0.1 mL of saline buffer into the left flank of athymic nude mice. On day 4 after tumor transplantation, the mice were divided into four groups: (1) mice received intraperitoneal (i.p.) injections of 10% Tween-80 (vehicle) (n = 6); (2) mice received i.p. injections of compound 7 in 10% Tween-80 at a dose of 20 mg/kg (n = 5); (3) mice received i.p. injections of TMZ in saline buffer at a dose of 10 mg/kg (n = 5); (4) mice received combination therapy of compound 7 and TMZ at the same dosage and administration route (n = 6). Compound 7 was administered three times per week; in total seven injections were performed. TMZ was administered daily except weekends; in total eleven injections were performed. During the experiment, the tumor volumes were determined three times per week using caliper measurements and were calculated as V = (D × d^2)/2, where D is the longest diameter of the tumor node and d is the shortest diameter of the tumor node perpendicular to D. Mice were sacrificed on day 19 after tumor transplantation and material (tumor nodes, livers, and kidneys) was collected for subsequent analysis.

For data set [7], the system named is U87 cells. Briefly: Annexin V-FITC/propidium iodide flow cytometry, U87, 72 h, TMZ/7/NAC. It counts as cell-based, human. The following applies: U87, TMZ 500 μM, 7 600 nM. On the procedure:
[…] To quantify the total proportion of apoptotic cells in control and experimental groups, the events accumulated in the lower right quadrant (early apoptosis) and upper right quadrant (late apoptosis) were summarized.
(§1) After staining, 10,000 cells per sample were analyzed on a NovoCyte flow cytometer using NovoExpress software (ACEA Biosciences, Inc., USA).
For orientation: In flow cytometry, cells or beads pass a laser one at a time.

Data set [8] has as its system ROS production in U87 cells. Briefly: Intracellular ROS (DCFDA staining, flow cytometry), U87. Particulars: U87, TMZ 125 μM, 7 100 nM, NAC 2 mM, 72 h. It counts as cell-based, human. On the procedure:
Intracellular ROS levels were measured according to previously published studies ([Han et al., 2008]; [Samandari-Bahraseman et al., 2023]; [Kopsida et al., 2024]), using the DCFDA/H2DCFDA Cellular ROS Assay Kit (Abcam, Cambridge, United Kingdom). U87 cells were incubated with 7 and TMZ with or without NAC for 72 h (n = 3). Cells were then washed with PBS and incubated with 20 µM H2DCFDA for 30 min under standard conditions, followed by the removal of H2DCFDA-containing medium and double washing with PBS.
as §1

Data set [9] relates to U118 cells. Briefly: MTT assay 72 h, 7 and TMZ alone and combined, synergy (HSA), U118. It is filed as cell-based, human. On the procedure:
(§2) The drug synergy score was calculated for the dose-response matrix according to the highest single-agent (HSA) model using the SynergyFinder + web application (https://www.synergyfinder.org/).

Data set [10] deals with EPNT-5 cells. Kind of data set: MTT assay 72 h, 7 and TMZ alone and combined, synergy (HSA), EPNT-5. It is filed as cell-based, mouse. Particulars: MTT. On the procedure: as §2
The test system of data set [11] is U87 glioblastoma tumor tissue. Kind of data set: Histology and immunohistochemistry of U87 xenograft tumors. It counts as in vivo, athymic nude mice. The following applies: day 19. On the procedure: For the histological study, the tumor specimens were fixed in 10% neutral-buffered formalin (BioVitrum, Moscow, Russia), dehydrated in ascending ethanols and xylols and embedded in HISTOMIX paraffin (BioVitrum, Russia). The paraffin sections (3–4 µm) were sliced on a Microm HM 355S microtome (Thermo Fisher Scientific, Waltham, MA, USA) and stained with hematoxylin and eosin.
For the immunohistochemical study, the tumor sections were deparaffinized and rehydrated. Antigen retrieval was carried out after exposure in a microwave oven at 700 W. The samples were incubated with anti-Ki-67 (ab16667, Abcam, Boston, MA, USA) (n = 3), anti-GFAP (ab194325, Abcam, USA) (n = 3), and anti-N-cadherin (ab76011, Abcam, USA) (n = 3) primary antibodies according to the manufacturer’s protocol. Then, the sections were incubated with secondary horseradish peroxidase (HPR)-conjugated antibodies, exposed to the 3,30-diaminobenzidine (DAB) substrate (Rabbit Specific HRP/DAB (ABC) Detection IHC Kit, ab64261, Abcam, USA) and stained with Mayer’s hematoxylin.
Five to ten random fields were examined from the tumor specimens of three mice in each group, for a total of 15–30 test fields.

The subject of data set [12] is U87 cells. Kind of data set: MTT assay 72 h, 7 and TMZ alone and combined, synergy (HSA), U87. It counts as cell-based, human. On the procedure: as §2
The test system of data set [13] is TGF-β1-treated U87 cells. Kind of data set: Adhesion of U87 cells to culture plastic (TrypLE treatment assay). The following applies: TGF-β1 50 ng/mL, non-toxic concentrations, 48 h. It counts as cell-based, human. On the procedure: Adhesiveness of glioblastoma cells was assessed by two independent methods. First, cell adhesion to culture plastic was tested using a trypsin treatment assay, as previously described ([Sava et al., 2004]; [Mazuryk et al., 2015]; [van Dijk et al., 2017]). Briefly, U87 and U118 cells (10,000 cells per well of a 96-well plate, n = 4) were cultured with TGF-β1 (50 ng/mL) and non-toxic concentrations of soloxolone amides for 48 h and then treated with a 1:20 dilution of TrypLE Express (Gibco, USA) in PBS for 3 min at 37°C. Non-adherent cells were then removed by a triple PBS wash, and the remaining adherent cells were fixed with 4% formaldehyde and stained with crystal violet dye (0.1% w/v). Images were captured using the iBright 1,500 Imaging System (Invitrogen, USA), and the cell-occupied area was calculated using ImageJ. Alternatively, the number of adherent cells was quantified using the MTT assay.

Some results are limits rather than exact numbers.

For `CC(C)(C)c1cc(CCCNC(=O)[C@@]2(C)CC[C@]3(C)CC[C@]4(C)[C@H](C(=O)C=C5[C@@]6(C)C=C(C#N)C(=O)C(C)(C)C6CC[C@]54C)[C@@H]3C2)cc(C(C)(C)C)c1O` (stereo partly drawn) [compound 8, N-(3′-(3″,5″-di-tert-butyl-4″-hydroxyphenyl)propyl)-2-cyano-3,12-dioxo-18βH-olean-9(11),1(2)-dien-30-amide], in data set [1], the relative cytotoxicity result was “high” and the MNTC came out at 50 nM.

As for `CC1(C)C(=O)C(C#N)=C[C@]2(C)C3=CC(=O)[C@@H]4[C@@H]5C[C@@](C)(C(=O)NCCc6c[nH]c7ccccc67)CC[C@]5(C)CC[C@@]4(C)[C@]3(C)CCC12` (stereo partly drawn) [compound 9], in data set [1], the relative cytotoxicity result is “moderate” and the MNTC was 100 nM. In [2], the “concentration causing a large-scale reduction of spheroids” value was 4 µM. In data set [3], the “effect on size/morphology of TGF-β1-induced U87 cells” value is listed as “restored their morphological characteristics to the control cells”. Besides, in data set [4], the “reduction in tumor weight compared to the vehicle-treated group” value was 3.4 fold.

What is called IC50 is the midpoint of a concentration-inhibition curve. With `Cn1nnc2c(C(N)=O)ncn2c1=O` [TMZ, temozolomide, reference compound], the “toxic effects (body weight and organ indices)” value in [5] was “no toxic effects”. For the same compound, in [6], the “reduction in tumor weight compared to the vehicle” value came out at 21.9 fold. Further, in [7], the “cells in the right quadrants (apoptosis)” value amounted to 9%. In addition, the “ROS accumulation (in words)” value in data set [8] is given as “did not increase ROS accumulation”. Moreover, the half-maximal inhibitory concentration (IC50) was over 500 µM in data set [9] (MTT), over 500 µM in data set [10] and 213 µM in data set [12] (MTT). Also, the “reduction of the cytotoxic effect by NAC” value in [9] (U118, NAC 2 mM, TMZ 125 μM, 7 100 nM) was found to be 32.5%; in data set [12] (U87, NAC 2 mM, TMZ 125 μM, 7 100 nM) it was 22.3%. Moreover, in data set [11], the “N-cadherin and GFAP levels in tumor sections (immunohistochemistry)” value was “significantly reduced their levels”. For the same compound, the “reduction in the numerical density of Ki-67-positive cells compared to vehicle” value in data set [11] stood at 9 fold.

With `CC1(C)C(=O)C(C#N)=C[C@]2(C)C3=CC(=O)[C@@H]4[C@@H]5C[C@@](C)(C(=O)NCCCCCO)CC[C@]5(C)CC[C@@]4(C)[C@]3(C)CCC12` (stereo partly drawn) [compound 2, N-(5′-hydroxypentyl)-2-cyano-3,12-dioxo-18βH-olean-9(11),1(2)-dien-30-amide], in [1], the relative cytotoxicity entry is given as “moderate” and the MNTC was found to be 100 nM.

Regarding `CC1(C)C(=O)C(C#N)=C[C@]2(C)C3=CC(=O)[C@@H]4[C@@H]5C[C@@](C)(C(=O)Nc6ccc(Br)cc6)CC[C@]5(C)CC[C@@]4(C)[C@]3(C)CCC12` (stereo partly drawn) [compound 5, N-(4′-bromophenyl)-2-cyano-3,12-dioxo-18βH-olean-9(11),1(2)-dien-30-amide], in [1], the relative cytotoxicity entry is on record as “high” and the MNTC was 50 nM. Further, in data set [3], the “effect on size/morphology of TGF-β1-induced U87 cells” value is given as “restored their morphological characteristics to the control cells”.

As for `CN(C)CCCNC(=O)[C@@]1(C)CC[C@]2(C)CC[C@]3(C)[C@H](C(=O)C=C4[C@@]5(C)C=C(C#N)C(=O)C(C)(C)C5CC[C@]43C)[C@@H]2C1` (stereo partly drawn) [compound 4, N-(3′-(dimethylamino)propyl)-2-cyano-3,12-dioxo-18βH-olean-9(11),1(2)-dien-30-amide], in data set [1], the relative cytotoxicity result was “low” and the MNTC came out at 300 nM.

Take `CN(C)CCNC(=O)[C@@]1(C)CC[C@]2(C)CC[C@]3(C)[C@H](C(=O)C=C4[C@@]5(C)C=C(C#N)C(=O)C(C)(C)C5CC[C@]43C)[C@@H]2C1` (stereo partly drawn) [compound 3, N-(2′-(dimethylamino)ethyl)-2-cyano-3,12-dioxo-18βH-olean-9(11),1(2)-dien-30-amide]: in data set [1], the relative cytotoxicity entry is given as “low” and the MNTC was determined as 300 nM. In addition, the “adhesion of TGF-β1-treated U87 cells to culture plastic (crystal violet)” value in data set [13] was “restoring it to control levels”.

As to `CC1(C)C(=O)C(C#N)=C[C@]2(C)C3=CC(=O)[C@@H]4[C@@H]5C[C@@](C)(C(=O)Nc6cccnc6)CC[C@]5(C)CC[C@@]4(C)[C@]3(C)CCC12` (stereo partly drawn) [compound 6, N-(pyridin-3-yl)-2-cyano-3,12-dioxo-18βH-olean-9(11),1(2)-dien-30-amide], in [1], the relative cytotoxicity result is “moderate” and the MNTC amounted to 100 nM.
